Source: paper PMC6982817, “Substituted N-(Pyrazin-2-yl)benzenesulfonamides; Synthesis, Anti-Infective Evaluation, Cytotoxicity, and In Silico Studies” (Molecules, 2019)
Values after ≈ are worked out from the molar mass of the structure shown. Where two headings read alike, the source gives them in different places.

Tests used:
[1] = tested on: Mycobacterium tuberculosis H37Rv CNCTC My 331/88 (ATCC 27294); settings: cited from earlier work; for Antimycobacterial Activity MIC against Mtb H37Rv, Retro-amide: previously published N-pyrazinylbenzamides; for Antimycobacterial Activity MIC against Mtb H37Rv, Amide: previously published pyrazinecarboxamides, methodology not identical
[2] = tested on: Aspergillus flavus CCM 8363; assay: Antifungal microdilution broth, A. flavus; type: cell-based; settings: CCM8363, 48 h, read-out: MIC against Aspergillus flavus
[3] = tested on: C. tropicalis CCM 8264 (ATCC 750); assay: Antifungal microdilution broth, C. tropicalis; type: cell-based; settings: Candida tropicalis, 48 h; read-out: MIC against C. tropicalis
[4] = tested on: Lichtheimia corymbifera CCM 8077; assay: Antifungal microdilution broth, L. corymbifera; type: cell-based; settings: CCM8077, 48 h, read-out: MIC against Lichtheimia corymbifera
[5] = tested on: C. parapsilosis CCM 8260 (ATCC 22019); assay: Antifungal microdilution broth, C. parapsilosis; type: cell-based, Candida parapsilosis; settings: Lodderomyces parapsilosis, 48 h; read-out: MIC against C. parapsilosis
[6] = tested on: Trichophyton interdigitale CCM 8377 (ATCC 9533); assay: Antifungal microdilution broth, T. interdigitale; type: cell-based; settings: 72 h, read-out: MIC against Trichophyton interdigitale
[7] = tested on: C. krusei CCM 8271 (ATCC 6258); assay: Antifungal microdilution broth, C. krusei; type: cell-based, Candida krusei; settings: Pichia kudriavzevii, 48 h; read-out: MIC against C. krusei
[8] = tested on: M. kansasii CNCTC My 235/80 (ATCC 12478); assay: Antimycobacterial microplate alamar blue assay, M. kansasii; type: cell-based, Mycobacterium kansasii; settings: Mycobacterium kansasii
[9] = tested on: Mycobacterium aurum DSM 43999 (ATCC 23366); assay: Antimycobacterial microdilution assay, M. aurum; type: cell-based; settings: Middlebrook 7H9 broth, resazurin after 72 hours; for MIC: Mycolicibacterium aurum, 72 h
[10] = tested on: HepG2 cells; settings: cited from earlier work
[11] = tested on: M. avium ssp. avium CNCTC My 80/72 (ATCC 15769); assay: Antimycobacterial microplate alamar blue assay, M. avium; type: cell-based, Mycobacterium avium; settings: for MIC: Mycobacterium avium, ATCC15769, pH 6.6, Middlebrook 7H9 broth pH 6.6, alamar blue, read-out: Antimycobacterial Activity MIC M. avium
[12] = tested on: Mycobacterium tuberculosis H37Rv CNCTC My 331/88 (ATCC 27294); assay: Antimycobacterial microplate alamar blue assay, M. tuberculosis H37Rv; type: cell-based; settings: for MIC: Mycobacterium tuberculosis
[13] = tested on: Mycobacterium smegmatis DSM 43465 (ATCC 607); assay: Antimycobacterial microdilution assay, M. smegmatis; type: cell-based; settings: Middlebrook 7H9 broth, resazurin after 48 hours; for MIC: Mycolicibacterium smegmatis, 48 h, read-out: Antimycobacterial Activity MIC M. smeg
[14] = tested on: Serratia marcescens 62-2016; assay: Antibacterial microdilution broth, S. marcescens; type: cell-based; settings: Serratia marcescens, 622016, 48 h; read-out: MIC against Serratia marcescens
[15] = tested on: Enterococcus faecalis CCM 4224 (ATCC 29212); assay: Antibacterial microdilution broth, E. faecalis; type: cell-based; settings: 48 h, read-out: MIC against Enterococcus faecalis
[16] = tested on: Klebsiella pneumoniae 64-2016; assay: Antibacterial microdilution broth, K. pneumoniae; type: cell-based; settings: Klebsiella pneumoniae, 642016, 48 h; read-out: MIC against Klebsiella pneumonia
[17] = tested on: Escherichia coli CCM 3954 (ATCC 25922); assay: Antibacterial microdilution broth, E. coli; type: cell-based; settings: 48 h, read-out: MIC against Escherichia coli
[18] = tested on: Pseudomonas aeruginosa CCM 3955 (ATCC 27853); assay: Antibacterial microdilution broth, P. aeruginosa; type: cell-based; settings: 48 h, read-out: MIC against Pseudomonas aeruginosa
[19] = tested on: Staphylococcus aureus methicillin-resistant CCM 4750 (ATCC 43300); assay: Antibacterial microdilution broth, MRSA; type: cell-based; settings: 48 h, read-out: MIC against Staphylococcus aureus methicillin resistant
[20] = tested on: Staphylococcus aureus CCM 4223 (ATCC 29213); assay: Antibacterial microdilution broth, S. aureus; type: cell-based; settings: 48 h, read-out: MIC against Staphylococcus aureus
[21] = tested on: Staphylococcus epidermidis 112-2016; assay: Antibacterial microdilution broth, S. epidermidis; type: cell-based; settings: Staphylococcus epidermidis, 1122016, 48 h; read-out: MIC against Staphylococcus epidermidis
[22] = physchem
Procedure: (§1) Three compounds 6b, 9b and 13b were selected and their pKa values were determined experimentally using potentiometric and absorbance methods (Table 2).
(§2) For the spectrophotometric method, 1 μM solution of the compound in question was prepared in methanol. The spectra of the sample at several (at least seven) different pH values were measured against blank (water) using a Helios spectrophotometer (Unicam Cambridge). The pH valued covered the region in which all sample molecules were converted from ionized to molecular form or vice versa. Each cuvette contained 200 μL of the sample solution and 1.8 mL of the corresponding buffer. The pH values used and the absorbances allowed us to calculate the pKa of the sample according to the following equation: pKa=pH+log(Ai−A/A−Au) where A is the absorbance of the compound at the corresponding buffer, Ai is the absorbance of the ionized state of the compound and Au is the absorbance of the unionized state. The final pKa was the average of all the pKa at different pH values. For the potentiometric measurements, 1 μM solution of the compound in question was prepared in 3:2 water:methanol, with the addition of 100 μL of 0.1% NaOH. Then small amounts (100 μL) of 0.01% HCl were added repeatedly and the pH was measured each time using a pH meter (inoLab® pH 7110 Czech Republic). The inflection point of the titration curve determined the pKa.

[23] = in vitro; settings: human
[24] = physchem; remark: listed apart in the source
Procedure: as §1, §2

[25] = ATCC12478, pH 6.6, Middlebrook 7H9 broth pH 6.6, alamar blue, read-out: Antimycobacterial Activity MIC M. kansasii
[26] = pH 6.6, Middlebrook 7H9 broth pH 6.6, alamar blue, read-out: Antimycobacterial Activity MIC Mtb H37Rv
[27] = ATCC12478, molar value printed beside μg/mL in text, read-out: MIC M. kansasii
[28] = Middlebrook 7H9 broth pH 6.6, alamar blue

Row | Structure (SMILES) | MIC [8, 25] | MIC [9] | MIC [11] | MIC [12, 26] | MIC [13] | IC50 at 24 h [23] | melting point | also measured
1 | O=C(Nc1cnccn1)c1ccccc1 [Retro-amide R^1 H R^2 H] | – | – | – | – | – | – | – | Antimycobacterial Activity MIC against Mtb H37Rv, Retro-amide [1]: >100 µg/mL
2 | C[C@@H]1[C@H](O)[C@@H](C)/C=C/C=C/C=C/C=C/C=C/C=C/C=C/[C@H](O[C@@H]2O[C@H](C)[C@@H](O)[C@H](N)[C@@H]2O)C[C@@H]2O[C@](O)(C[C@@H](O)C[C@@H](O)[C@H](O)CC[C@@H](O)C[C@@H](O)CC(=O)O[C@H]1C)C[C@H](O)[C@H]2C(=O)O [amphotericin B] | – | – | – | – | – | – | – | MIC [2]: 8 µg/mL (≈ 8.66 µM); MIC [3]: 1 µg/mL (≈ 1.08 µM); MIC [4]: 0.5 µg/mL (≈ 0.541 µM); MIC [5]: 0.5 µg/mL (≈ 0.541 µM); MIC [6]: 2 µg/mL (≈ 2.16 µM); MIC [7]: 1 µg/mL (≈ 1.08 µM)
3 | NC(=O)c1cnccn1 [PZA, reference compound] | > 100 µg/mL | ≥ 500 µg/mL | > 100 µg/mL | > 100 µg/mL | ≥ 500 µg/mL | – | – | IC50 [10]: > 10000 µM
4 | COc1ccc(NC(=O)c2cnccn2)cc1 [Amide R^1 H R^2 4-OCH3] | – | – | – | – | – | – | – | Antimycobacterial Activity MIC against Mtb H37Rv, Amide [1]: 25 µg/mL
5 | CNC(C)C1CCC(N)C(OC2C(N)CC(N)C(OC3OCC(C)(O)C(NC)C3O)C2O)O1 (centres unmarked) [gentamicin] | – | – | – | – | – | – | – | MIC [14]: 2 µg/mL (≈ 4.19 µM); MIC [15]: 8 µg/mL (≈ 16.8 µM); MIC [16]: > 8 µg/mL; MIC [17]: 1 to 2 µg/mL (≈ 2.09 to 4.19 µM); MIC [18]: 0.5 µg/mL (≈ 1.05 µM); MIC [19]: 16 to 32 µg/mL (≈ 33.5 to 67 µM); MIC [20]: 1 µg/mL (≈ 2.09 µM); MIC [21]: > 8 µg/mL
6 | O=C(Nc1ccccc1)c1cncc(Cl)n1 [Amide R^1 6-Cl R^2 H] | – | – | – | – | – | – | – | Antimycobacterial Activity MIC against Mtb H37Rv, Amide [1]: >100 µg/mL
7 | O=S(=O)(Nc1cncc(Cl)n1)c1ccc2ccccc2c1 [Compound 13b, N-(6-chloropyrazin-2-yl)naphthalene-2-sulfonamide] | 50 µg/mL | 250 µg/mL (≈ 782 µM) | > 100 µg/mL | 50 µg/mL (≈ 156 µM) | 125 µg/mL (≈ 391 µM) | > 1000 µM | 204.6 to 207 °C | pKa [22]: 5.75; pKa [24]: 5.63
8 | Cc1cc(C)c(S(=O)(=O)Nc2cncc(Cl)n2)c(C)c1 [Compound 9b, N-(6-chloropyrazin-2-yl)-2,4,6-trimethylbenzenesulfonamide] | 50 µg/mL | ≥ 500 µg/mL | > 100 µg/mL | > 100 µg/mL | ≥ 500 µg/mL | 180 µM | 179.7 to 180.2 °C | pKa [22]: 6.38; pKa [24]: 6.32
9 | O=C(Nc1cncc(Cl)n1)c1ccccc1 [Retro-amide R^1 6-Cl R^2 H] | – | – | – | – | – | – | – | Antimycobacterial Activity MIC against Mtb H37Rv, Retro-amide [1]: 25 µg/mL
10 | NNC(=O)c1ccncc1 [INH, reference compound] | – | – | 6.25 to 12.5 µg/mL (≈ 45.6 to 91.1 µM) | 0.1 to 0.2 µg/mL (≈ 0.729 to 1.46 µM) | – | – | – | MIC [8, 27]: 182 µM; IC50 [10]: 79000 µM; Antimycobacterial Activity MIC M. avium [11, 28]: 12.5 µg/mL; Antimycobacterial Activity MIC Mtb H37Rv [12, 28]: 0.2 µg/mL
11 | COc1ccc(S(=O)(=O)Nc2cncc(Cl)n2)cc1 [Compound 6b, N-(6-chloropyrazin-2-yl)-4-methoxybenzenesulfonamide] | 100 µg/mL | ≥ 500 µg/mL | > 100 µg/mL | > 100 µg/mL | ≥ 500 µg/mL | > 1000 µM | – | pKa [22]: 7.21; pKa [24]: 6.95
12 | COc1ccc(C(=O)Nc2cnccn2)cc1 [Retro-amide R^1 H R^2 4-OCH3] | – | – | – | – | – | – | – | Antimycobacterial Activity MIC against Mtb H37Rv, Retro-amide [1]: >100 µg/mL
13 | Cc1cc(C)cc(S(=O)(=O)Nc2cnccn2)c1 [Compound 8a, 3,5-dimethyl-N-(pyrazin-2-yl)benzenesulfonamide] | 50 µg/mL | 250 µg/mL (≈ 949 µM) | > 100 µg/mL | > 100 µg/mL | ≥ 500 µg/mL | > 500 µM | 184 to 187 °C | –
14 | O=S(=O)(Nc1cncc(Cl)n1)c1ccc(C(F)(F)F)cc1 [Compound 5b, N-(6-chloropyrazin-2-yl)-4-(trifluoromethyl)benzenesulfonamide] | > 100 µg/mL | 250 µg/mL (≈ 740 µM) | > 100 µg/mL | 100 µg/mL (≈ 296 µM) | 250 µg/mL (≈ 740 µM) | 364 µM | 125 to 127.2 °C | –
15 | O=C(O)c1cn(C2CC2)c2cc(N3CCNCC3)c(F)cc2c1=O [CPX] | – | 0.00781 to 0.0156 µg/mL (≈ 0.0236 to 0.0472 µM) | – | – | 0.0625 to 0.125 µg/mL (≈ 0.189 to 0.377 µM) | – | – | MIC [14]: 0.256 µg/mL (≈ 0.773 µM); MIC [15]: 0.512 µg/mL (≈ 1.55 µM); MIC [16]: > 1.02 µg/mL; MIC [17]: 0.008 µg/mL (≈ 0.0241 µM); Antimycobacterial Activity MIC M. aurum [9]: 0.008 µg/mL; MIC [18]: 0.128 µg/mL (≈ 0.386 µM); MIC [19]: 0.128 µg/mL (≈ 0.386 µM); MIC [20]: 0.128 to 0.256 µg/mL (≈ 0.386 to 0.773 µM); Antimycobacterial Activity MIC M. smeg [13]: 0.125 µg/mL; MIC [21]: > 1.02 µg/mL
16 | O=C(Nc1ccccc1)c1cnccn1 [Amide R^1 H R^2 H] | – | – | – | – | – | – | – | Antimycobacterial Activity MIC against Mtb H37Rv, Amide [1]: 100 µg/mL
17 | O=S(=O)(Nc1cncc(Cl)n1)c1ccccc1 [Compound 1b, N-(6-chloropyrazin-2-yl)benzenesulfonamide] | 100 µg/mL | ≥ 500 µg/mL | > 100 µg/mL | 50 µg/mL (≈ 185 µM) | 250 µg/mL (≈ 927 µM) | 731 µM | 198 to 200.2 °C | MIC ([12]; Table 4 comparison, title compounds, read-out: Antimycobacterial Activity MIC against Mtb H37Rv, Sulfonamide): 50 µg/mL (≈ 185 µM)
18 | O=[N+]([O-])c1ccc(S(=O)(=O)Nc2cnccn2)cc1 [Compound 3a, 4-nitro-N-(pyrazin-2-yl)benzenesulfonamide] | > 100 µg/mL | > 500 µg/mL | > 100 µg/mL | > 100 µg/mL | > 500 µg/mL | > 1000 µM | 230.8 to 231.8 °C | –
19 | O=S(=O)(Nc1cncc(Cl)n1)c1ccc(-c2ccccc2)cc1 [Compound 12b, N-(6-chloropyrazin-2-yl)-[1,1′-biphenyl]-4-sulfonamide] | 12.5 µg/mL | ≥ 500 µg/mL | > 100 µg/mL | 100 µg/mL (≈ 289 µM) | ≥ 500 µg/mL | 302 µM | 229.3 to 230.3 °C | MIC [8, 27]: 36.1 µM
